Experimental data reported in the NIST ThermoML archive (doi:10.1021/je700725j).
± gives the expanded uncertainty stated by the source.

Conditions: Liquid

SMILES	vapor or sublimation pressure (273.15 K) [kPa]	vapor or sublimation pressure (283.15 K) [kPa]	vapor or sublimation pressure (293.15 K) [kPa]	vapor or sublimation pressure (303.15 K) [kPa]	vapor or sublimation pressure (313.15 K) [kPa]	vapor or sublimation pressure (323.15 K) [kPa]
CCCC [butane]	104 ± 2	150 ± 2	208 ± 2	284 ± 3	378 ± 3	494 ± 4
CC(F)(F)F [1,1,1-trifluoroethane]	620 ± 4	837 ± 5	1104 ± 7	1432 ± 9	1830 ± 11	2298 ± 14
